Test [1] deals with T1, Thioredoxin, mitochondrial (Homo sapiens) (UniProt Q99757).
T1 sequence (whole entry): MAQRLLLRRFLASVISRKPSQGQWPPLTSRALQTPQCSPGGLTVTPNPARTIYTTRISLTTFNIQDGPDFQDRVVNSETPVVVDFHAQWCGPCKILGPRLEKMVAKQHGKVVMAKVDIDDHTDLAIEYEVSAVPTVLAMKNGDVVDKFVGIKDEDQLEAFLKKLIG
In words: Covalent binding affinity to human recombinant TRX-2 assessed as change in protein configuration at 0.05 mM by MALDITOF mass spectrometry.

The target in test [2] is T2, Thioredoxin (Homo sapiens) (UniProt P10599).
T2 sequence (whole entry): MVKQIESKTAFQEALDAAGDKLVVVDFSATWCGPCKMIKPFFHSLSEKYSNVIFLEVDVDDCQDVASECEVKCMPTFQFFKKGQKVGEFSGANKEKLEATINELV
As to the kind of experiment: Covalent binding affinity to human recombinant TRX-1 assessed as change in protein configuration at 0.1 mM by MALDITOF mass spectrometry.

Test [3] deals with T1, Thioredoxin, mitochondrial (Homo sapiens). In words: Inhibition of human recombinant TRX-2 by insulin reduction assay. Particulars: TDE = time-dependent effect.
The target in test [4] is T3, Thioredoxin, mitochondrial (Homo sapiens, UniProt Q99757).
T3 sequence (Q99757 whole entry): T1 sequence (whole entry)
In words: (§1) Inhibition of human recombinant TRX-2 up to 60 mins by insulin reduction assay.

Test [5] addresses T1, Thioredoxin, mitochondrial (Homo sapiens). Described as §1.
Test [6] has the same target. In words: Covalent binding affinity to human recombinant TRX-2 assessed as change in protein configuration at 20 uM by LC-ESIQTOF mass spectrometry. Particulars: TDE = time-dependent effect.
The target of test [7] is T2, Thioredoxin (Homo sapiens). As to the kind of experiment: Covalent binding affinity to human recombinant TRX-1 C assessed as modification in C62/C69/C73 residues by LC-MS/MS analysis.
Test [8] addresses T1, Thioredoxin, mitochondrial (Homo sapiens). As to the kind of experiment: Covalent binding affinity to human recombinant TRX-2 C assessed as modification in C31/C34 residues by LC-MS/MS analysis.
Test [9] concerns the target T2, Thioredoxin (Homo sapiens). In words: Covalent binding affinity to human recombinant TRX-1 assessed as change in protein configuration at 50 uM by LC-ESIQTOF mass spectrometry. The settings on record: TDE = time-dependent effect.
In test [10] the target is T2, Thioredoxin (Homo sapiens). As to the kind of experiment: Inhibition of human recombinant TRX-1 by insulin reduction assay. The settings on record: TDE = time-dependent effect.
Test [11] concerns the target T2, Thioredoxin (Homo sapiens). As to the kind of experiment: (§2) Inhibition of human recombinant TRX-1 up to 60 mins by insulin reduction assay.
The target of another test is T4, Thioredoxin (Homo sapiens, UniProt P10599).
T4 sequence (P10599 whole entry): T2 sequence (whole entry)
Described as §2.

For test [12], the target named is T2, Thioredoxin (Homo sapiens). In words: Inhibition of TRX1 in human […] cells after 2 hrs by insulin reduction assay. The format is cell-based.
Test [13] deals with T2, Thioredoxin (Homo sapiens). In words: Covalent binding affinity to TRX-1 in human […] cells at 3 uM after 2 hrs by immunofluorescence assay. The format is cell-based.
The target in test [14] is T1, Thioredoxin, mitochondrial (Homo sapiens). In words: Covalent binding affinity to TRX-2 in human […] cells at 3 uM after 2 hrs by immunofluorescence assay. The test is classed as cell-based.
The target in test [15] is T2, Thioredoxin (Homo sapiens). In words: Covalent binding affinity to TRX-1 in human […] cells assessed as compound-TRX-1 adduct formation at 3 uM after 2 hrs by immunoblotting in presence of GSH. The test is classed as cell-based. A general note: Immunoblotting shows a protein as a band on a membrane.
Test [16] concerns the target T1, Thioredoxin, mitochondrial (Homo sapiens). In words: Covalent binding affinity to TRX-2 in human […] cells assessed as compound-TRX-2 adduct formation at 3 uM after 2 hrs by immunoblotting in presence of GSH. The format is cell-based.

Activity calls are given as the source filed them. The calls are words filed in the database; no cut-off is given here.

This is an account of results in ChEMBL document CHEMBL2203071, “Gambogic acid deactivates cytosolic and mitochondrial thioredoxins by covalent binding to the functional domain” (J Nat Prod, 2012).

Turning to `CC(C)=CCC[C@]1(C)C=Cc2c(O)c3c(c(CC=C(C)C)c2O1)O[C@]12C(C3=O)[C@@H](S(=O)(=O)O)[C@@H]3C[C@H]1C(C)(C)O[C@@]2(C/C=C(/C)C(=O)O)C3=O` (some centres undefined), the outcome in test [1] and in test [2] was inactive.

For `CC(C)=CCC[C@]1(C)C=Cc2c(O)c3c(c(CC=C(C)C)c2O1)O[C@]12C(=C[C@@H]4C[C@H]1C(C)(C)O[C@@]2(C/C=C(/C)C(=O)O)C4=O)C3=O` [GAMBOGIC ACID], the inhibition entry in [3] was “tde”; in test [5] it was “Dose-dependent effect”; in test [10], “tde”; in test [11], “Dose-dependent effect”; in test [12], “Dose-dependent effect”. Moreover, the Ki (as a rule, the dissociation constant of the complex between target and ligand, obtained from inhibition or displacement) in test [4] worked out at 1310 nM; on Thioredoxin, 3110 nM. The Kinact was 0.037 min⁻¹ in [5] and 0.063 min⁻¹ in test [11]. Besides, the outcome in test [1], in test [2], in test [7] and in test [8] was Active. Further, the Activity entry in [6] and in [9] was “tde” throughout.

Consider `CC(C)=CCC[C@]1(C)C=Cc2c(O)c3c(c(CC=C(C)C)c2O1)O[C@]12C(C[C@@H]4C[C@H]1C(C)(C)O[C@@]2(C/C=C(/C)C(=O)O)C4=O)C3=O` (some centres undefined), for which the outcome in test [1] and in test [2] was inactive.

With `CC(C)=CCC[C@]1(C)C=Cc2c(O)c3c(c(CC=C(C)C)c2O1)O[C@]12C(C3=O)[C@H](S(=O)(=O)O)[C@@H]3C[C@H]1C(C)(C)O[C@@]2(C/C=C(/C)C(=O)O)C3=O` (some centres undefined), the outcome in test [1] and in test [2] was inactive.

In the case of `CC(C)=CCC[C@]1(C)C=Cc2c(O)c3c(c(CC=C(C)C)c2O1)O[C@]12C(C3=O)C(O)[C@@H]3C[C@H]1C(C)(C)O[C@@]2(C/C=C(/C)C(=O)O)C3=O` (some centres undefined), the outcome in test [1] and in [2] was inactive.

As to `CC(C)=CCC/C(C)=C/Cc1c(O)c(CC=C(C)C)c2c(c1O)C(=O)C1=C[C@@H]3C[C@H]4C(C)(C)O[C@@](C/C=C(/C)C(=O)O)(C3=O)[C@@]14O2`, the result in test [1] and in test [2] was Active.

`CC(C)=CCC[C@]1(C)C=Cc2c(O)c3c(c(CC=C(C)C)c2O1)O[C@]12C(=C[C@@H]4C[C@H]1C(C)(C)O[C@@]2(C/C=C(/C)C(=O)NCCCCCNC(=O)CCCC[C@@H]1SC[C@@H]2NC(=O)N[C@@H]21)C4=O)C3=O`: the result in [13], in test [14], in test [15] and in test [16] was Active.
